According to patent US6479461B1, “Use of alkylmonoglucosides as molecular vectors” (Ulice, priority 1997, dated 2002):
Like-named read-outs stand apart in the source and are kept apart here. One block for each compound: values may come before it.

What was measured:
[1] = test system: skin model: epidermis reconstituted from keratinocytes on a matrix of collagen; assay: MTT dosage on skin model (cytotoxicity)
Text: We have quantified and compared in vitro, the cytotoxicity of lactic acid and of lactate of α-butylglucoside on a skin model. This skin model is made up of a matrix of collagen on which rests an epidermis reconstituted from keratinocytes and presenting a similar architecture to that of the human epidermis. The transformation of tetrazolium salt (MTT) in blue crystals of Formozan is proportional to the activity of the dehydrogenase succinate, (a mitochondrial enzyme). As a consequence, the more the epidermis contains living cells, the larger the transformation by the dehydrogenase succinate of the MTT in blue Formozan crystals will be. The quantity of Formozan is measured in the spectrophotometer. The cellular viability, carried out to determine the toxicity of the product, is calculated according to the formula:
% viability=OD produced/OD cellular control×100
The cellular control is carried out without issue. A reference tensioactive SDS (Sodium Dodecyl Sulphate) at 1.5 mg/ml is equally tested as a cytotoxic control.
If the cellular viability is between 70 and 50%, the products are considered as slightly cytotoxic.
If it is lower than 50%, the products are considered as cytotoxic.

[2] = test system: corneas from abattoir beef carcasses
Text: The BCOP test (bovine corneal opacity and permeability) makes it possible to evaluate the ocular irritation indice in vitro on corneas from abattoir beef carcasses. It measures two parameter of ocular irritation: the opacity and cellular permeability.
The opacity is defined as the difference of light transmission between a treated cornea and a control cornea. The permeability is equal to the optical density (OD) measured in a spectrophotometer at 490 nm.
The irritation score in vitro is established by using the following formula:
Score in vitro=opacity value+[…] the value of OD.
The objective values are combined and the scores of ocular irritation in vitro are compared to an irritation scale previously established. In general, the irritant potential is classed in three categories weak (0 to 25), moderate (25.1 to 55) and severe (55.1 and +).

[3] = SDS at 1-5 mg/ml, MTT, skin model

SMILES: CCCCO[C@H]1O[C@H](COC(=O)C(C)O)[C@@H](O)[C@H](O)[C@H]1O (stereo partly drawn) [Lactate of α-butylglucoside, Lactic Ester of α-Butylglucoside]
% viability in comparison to the control [1]: 74.5%
Average (optical density at 540 nm) [1]: 0.255
OD trial 1 (optical density at 540 nm) [1]: 0.242
OD trial 2 (optical density at 540 nm) [1]: 0.265
cytotoxicity class [1]: not cytotoxic
irritancy compared with lactic acid [1]: less irritant than lactic acid

SMILES: CC(O)C(=O)O (stereo not shown) [Lactic acid, lactic acid]
% viability in comparison to the control ([1]; 5 %): 16%
Average (optical density at 540 nm) ([1]; 5 %): 0.055
OD trial 1 (optical density at 540 nm) ([1]; 5 %): 0.044
OD trial 2 (optical density at 540 nm) ([1]; 5 %): 0.066
ocular irritation category [2]: moderately irritant

SMILES: CCCCCCCCCCCCOS(=O)(=O)[O-].[Na+] [SDS, Sodium Dodecyl Sulphate]
% viability in comparison to the control [1, 3]: 14.8%
Average (optical density at 540 nm) [1, 3]: 0.051
OD trial 1 (optical density at 540 nm) [1, 3]: 0.046
OD trial 2 (optical density at 540 nm) [1, 3]: 0.056

miscibility with saturated and unsaturated acids (in a melted medium): miscible in all proportions
Solubility at 20° C. (solvent: Acetonitrile): 50 % (p/p)
Solubility at 20° C. (solvent: Dichloromethane): 70 % (p/p)
Solubility at 20° C. (solvent: Dioxane): 70 % (p/p)
Solubility at 20° C. (solvent: Ethanol (95/96%)): 70 % (p/p)
Solubility at 20° C. (solvent: Glycerol): 70 % (p/p)
Solubility at 20° C. (solvent: Polyethylene glycol 200): 70 % (p/p)
Solubility at 20° C. (solvent: Propylene glycol): 70 % (p/p)
Solubility at 20° C. (solvent: Water): 60 % (p/p)
SMILES: CCCCO[C@H]1O[C@H](CO)[C@@H](O)[C@H](O)[C@H]1O [α-butylglucoside, n-butyl-α-D-monoglucopyranose]
ocular irritation category [2]: non-irritant
